Source: ChEMBL document CHEMBL1177750, “Cellular localization of clathridimine, an antimicrobial 2-aminoimidazole alkaloid produced by the Mediterranean calcareous sponge Clathrina clathrus” (2010)

What was measured:
Format in all cases: functional
Staphylococcus aureus = test: Antimicrobial activity against Staphylococcus aureus ATCC 6538 at 100 ug/well after 24 hrs at 37 degC by agar diffusion assay; settings: ATCC 6538, 24 h, read-out: DIZ
Escherichia coli = test: Antimicrobial activity against Escherichia coli ATCC 8739 at 100 ug/well after 24 hrs at 37 degC by agar diffusion assay; settings: ATCC 8739, 24 h, read-out: DIZ
Candida albicans = test: Antimicrobial activity against Candida albicans ATCC 66029 at 100 ug/well after 24 hrs at 30 degC by agar diffusion assay; settings: ATCC 66029, 24 h, read-out: DIZ

SMILES	zone of inhibition at 100 µg/disc (Staphylococcus aureus)	zone of inhibition at 100 µg/disc (Escherichia coli)	zone of inhibition at 100 µg/disc (Candida albicans)
CN1C(=N)N=C(Nc2nc(Cc3ccc4c(c3)OCO4)cn2C)C1=O [CLATHRIDIMINE]	0 mm	15 mm	24 mm
CN1C(=O)N=C(Nc2nc(Cc3ccc4c(c3)OCO4)cn2C)C1=O [CLATHRIDINE]	0 mm	0 mm	18 mm
CCC(C)n1ncn(-c2ccc(N3CCN(c4ccc(OCC5COC(Cn6cncn6)(c6ccc(Cl)cc6Cl)O5)cc4)CC3)cc2)c1=O (centres undefined) [ITRACONAZOLE]	–	–	21 mm
NC[C@H]1O[C@H](O[C@H]2[C@H](O)[C@@H](O[C@H]3O[C@H](CO)[C@@H](O)[C@H](N)[C@H]3O)[C@H](N)C[C@@H]2N)[C@H](O)[C@@H](O)[C@@H]1O [KANAMYCIN]	37 mm	38 mm	–
